Measurements taken from PubChem BioAssay AID330 (DTP/NCI, 2004).
Values joined by “and” are separate entries in the source; they are usually repeats but may differ in a detail not shown here. Identical values can stand only once. Inconclusive results and toxic doses are left out.

System: P388 leukemia ip, CD2F1 mice, survival T/C
Assay: NCI In Vivo Anticancer Drug Screen. Data for tumor model P388 Leukemia (intraperitoneal) in CD2F1 (CDF1) mice
Conditions: endpoint: median survival time, higher = longer survival
Summary of the method: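 Mice carrying the transplanted tumor received test compound or vehicle. Survival was recorded in each group, and the value is the treated-group measurement divided by that of the vehicle-treated control group.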

[1] = dose: 60.0 mg/kg/injection, schedule: Q01DX005 (ip), vehicle: saline with Tween-80
[2] = dose: 120.0 mg/kg/injection, schedule: Q01DX005 (ip), vehicle: saline with Tween-80
[3] = dose: 240.0 mg/kg/injection, schedule: Q01DX005 (ip), vehicle: saline with Tween-80
[4] = dose: 100.0 mg/kg/injection, schedule: Q01DX005 (ip), vehicle: saline with Tween-80

## O=C(O)c1c(Cl)nc2n1CCS2
dose: 50.0 mg/kg/injection, schedule: Q01DX001 (ip), vehicle: Klucel (hydroxypropylcellulose) (HPC)
  T/C: 97 % of control
dose: 100.0 mg/kg/injection, schedule: Q01DX001 (ip), vehicle: Klucel (hydroxypropylcellulose) (HPC)
  T/C: 101 % of control
dose: 200.0 mg/kg/injection, schedule: Q01DX001 (ip), vehicle: Klucel (hydroxypropylcellulose) (HPC)
  T/C: 104 % of control

## O=Cc1c2cnc(c1O)CSCCCCSC2
dose: 100.0 mg/kg/injection, schedule: Q04DX002 (ip), vehicle: saline with Tween-80
  T/C: 99 % of control
dose: 200.0 mg/kg/injection, schedule: Q04DX002 (ip), vehicle: saline with Tween-80
  T/C: 96 % of control
dose: 400.0 mg/kg/injection, schedule: Q04DX002 (ip), vehicle: saline with Tween-80
  T/C: 101 % of control

## CCCCCCCC(=O)NC1CC(O[C@H]2C[C@](O)(C(=O)CO)Cc3c(O)c4c(c(O)c32)C(=O)c2c(OC)cccc2C4=O)OC(C)C1O (stereo partly specified)
dose: 6.25 mg/kg/injection, schedule: Q01DX009 (ip), vehicle: other
  T/C: 153 % of control
dose: 12.5 mg/kg/injection, schedule: Q01DX009 (ip), vehicle: other
  T/C: 177 % of control
dose: 25.0 mg/kg/injection, schedule: Q01DX009 (ip), vehicle: other
  T/C: 184 % of control
dose: 50.0 mg/kg/injection, schedule: Q01DX009 (ip), vehicle: other
  T/C: 155 % of control
dose: 100.0 mg/kg/injection, schedule: Q01DX009 (ip), vehicle: other
  T/C: 86 % of control

## COc1ccc2cc1Oc1ccc(cc1)CC1c3c(c(OC)c(OC)c(OC)c3Oc3cc4c(cc3OC)CCN(C)C4C2)CCN1C (stereo unspecified)
dose: 15.0 mg/kg/injection, schedule: Q01DX009 (ip), vehicle: saline
  T/C: 94 % of control
dose: 30.0 mg/kg/injection, schedule: Q01DX009 (ip), vehicle: saline
  T/C: 94 % of control
dose: 60.0 mg/kg/injection, schedule: Q01DX009 (ip), vehicle: saline
  T/C: 103 % of control

## CCOC(=O)c1ccc(NC(=O)Nc2ccccc2F)cc1
[1]
  T/C: 95 % of control
[2]
  T/C: 95 % of control
[3]
  T/C: 104 % of control

## NC(=NC(=O)c1ccccc1)N(CCc1ccccc1)CCc1ccccc1
[1]
  T/C: 104 % of control
[2]
  T/C: 100 % of control
[3]
  T/C: 109 % of control

## CCOC(=O)C1(O)C(=O)ON=C1c1ccccc1 (stereo unspecified)
dose: 50.0 mg/kg/injection, schedule: Q01DX005 (ip), vehicle: Klucel (hydroxypropylcellulose) (HPC)
  T/C: 100 % of control
dose: 100.0 mg/kg/injection, schedule: Q01DX005 (ip), vehicle: Klucel (hydroxypropylcellulose) (HPC)
  T/C: 104 % of control
dose: 200.0 mg/kg/injection, schedule: Q01DX005 (ip), vehicle: Klucel (hydroxypropylcellulose) (HPC)
  T/C: 107 % of control

## Cc1cc2nc(CC(=O)c3cccnc3)c(CC(=O)c3cccnc3)nc2cc1C
dose: 6.25 mg/kg/injection, schedule: Q01DX005 (ip), vehicle: saline with Tween-80
  T/C: 90 % of control
dose: 12.5 mg/kg/injection, schedule: Q01DX005 (ip), vehicle: saline with Tween-80
  T/C: 90 % of control
dose: 25.0 mg/kg/injection, schedule: Q01DX005 (ip), vehicle: saline with Tween-80
  T/C: 90 % of control
[4]
  T/C: 91 % of control

## COc1ccccc1C1c2cc3c(cc2OC(C)(O)C1C)OCO3 (stereo unspecified)
dose: 50.0 mg/kg/injection, schedule: Q01DX005 (ip), vehicle: saline with Tween-80
  T/C: 100 % of control
[4]
  T/C: 97 % of control
dose: 200.0 mg/kg/injection, schedule: Q01DX005 (ip), vehicle: saline with Tween-80
  T/C: 96 % of control

## O=C1NC2CCCC1C(c1ccccc1)NC2c1ccccc1 (stereo unspecified)
dose: 100.0 mg/kg/injection, schedule: Q04DX003 (ip), vehicle: suspension in saline
  T/C: 98 % of control
dose: 200.0 mg/kg/injection, schedule: Q04DX003 (ip), vehicle: suspension in saline
  T/C: 99 % of control
dose: 400.0 mg/kg/injection, schedule: Q04DX003 (ip), vehicle: suspension in saline
  T/C: 100 % of control

## COc1ccc(CCN2CCC(CC3CCCCN3)CC2)cc1OC (stereo unspecified)
dose: 12.5 mg/kg/injection, schedule: Q01DX009 (ip), vehicle: distilled water + alcohol
  T/C: 103 % of control
dose: 25.0 mg/kg/injection, schedule: Q01DX009 (ip), vehicle: distilled water + alcohol
  T/C: 112 % of control
dose: 50.0 mg/kg/injection, schedule: Q01DX009 (ip), vehicle: distilled water + alcohol
  T/C: 105 % of control
dose: 100.0 mg/kg/injection, schedule: Q01DX009 (ip), vehicle: distilled water + alcohol
  T/C: 103 % of control

## O=[N+]([O-])c1ccc2nc(CCl)[nH]c2c1
dose: 12.5 mg/kg/injection, schedule: Q01DX009 (ip), vehicle: saline with Tween-80
  T/C: 103 % of control
dose: 25.0 mg/kg/injection, schedule: Q01DX009 (ip), vehicle: saline with Tween-80
  T/C: 116 % of control
dose: 50.0 mg/kg/injection, schedule: Q01DX009 (ip), vehicle: saline with Tween-80
  T/C: 99 % of control and 111 % of control

## O=C1C=CC(=O)N1c1ccccc1[N+](=O)[O-]
dose: 6.0 mg/kg/injection, schedule: Q01DX009 (ip), vehicle: saline with Tween-80
  T/C: 91 % of control

## C=C1C[C@]23C[C@@]1(O)CC[C@H]2[C@@]12C=C[C@@H](O1)C(C(=O)OCC)=C2[C@@H]3O
dose: 3.75 mg/kg/injection, schedule: Q01DX005 (ip), vehicle: saline
  T/C: 109 % of control
dose: 7.5 mg/kg/injection, schedule: Q01DX005 (ip), vehicle: saline
  T/C: 100 % of control
dose: 15.0 mg/kg/injection, schedule: Q01DX005 (ip), vehicle: Klucel (hydroxypropylcellulose) (HPC)
  T/C: 97 % of control
dose: 15.0 mg/kg/injection, schedule: Q01DX005 (ip), vehicle: saline
  T/C: 107 % of control
dose: 60.0 mg/kg/injection, schedule: Q01DX005 (ip), vehicle: Klucel (hydroxypropylcellulose) (HPC)
  T/C: 117 % of control
